# Source: US20110150980A1, “CGRP ANALOG” (VasoGenix Pharmaceuticals, Inc., priority 2009, published 2011)
# Bridges are numbered along the chain shown (N, C = ends). Where no end group is shown, it is not given here.
# Key:
# [1] = system: sedated Non Human Primate; test: IV infusion in the sedated Non Human Primate: blood pressure and heart rate (Example 1); format: in vivo
# CRLR/RAMP1 receptor = target: T1, CRLR/RAMP1 receptor (Homo sapiens, UniProt O60894+Q16602); test: CRE-luciferase assay in HEK293T cells transfected with CRLR and RAMP1; format: cell-based; conditions: compared to h-α-CGRP and h-β-CGRP as controls
# T1 construct: All of the full-length cDNAs were subcloned into pcDNA3.1 expression vectors; expressed in transfected cells; host or cells: HEK293T, transient calcium phosphate transfection, pcDNA3.1 vectors
# T1 sequence (Q16602 23-461): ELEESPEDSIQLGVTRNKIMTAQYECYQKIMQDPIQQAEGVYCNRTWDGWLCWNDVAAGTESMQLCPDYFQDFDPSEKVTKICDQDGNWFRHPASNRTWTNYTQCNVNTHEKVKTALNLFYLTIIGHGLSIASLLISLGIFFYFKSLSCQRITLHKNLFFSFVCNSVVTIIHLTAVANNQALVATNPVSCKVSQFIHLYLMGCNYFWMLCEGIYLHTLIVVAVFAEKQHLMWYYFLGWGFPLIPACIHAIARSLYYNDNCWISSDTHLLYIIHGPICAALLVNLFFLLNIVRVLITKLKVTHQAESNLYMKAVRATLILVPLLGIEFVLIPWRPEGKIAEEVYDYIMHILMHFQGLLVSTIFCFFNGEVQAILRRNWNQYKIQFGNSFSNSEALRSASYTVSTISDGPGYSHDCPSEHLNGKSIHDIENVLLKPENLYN
# T1 sequence (O60894 27-148): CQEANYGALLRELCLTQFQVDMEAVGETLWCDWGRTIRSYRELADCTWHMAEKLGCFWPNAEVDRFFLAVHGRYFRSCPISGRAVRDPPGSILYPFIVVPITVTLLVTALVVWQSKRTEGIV
# Excerpt: The expression vectors for RAMP1, RAMP2, RAMP3, CRLR, CRE-Luc and SRE-Luc were constructed as previously described (McLatchie L. M., et al. (1998) Nature 393:333-339). Human CRLR, RAMP1, and RAMP2 full-length cDNAs were cloned by RT-PCR using RNA obtained from HEK293T cells and CRLR, RAMP1, and RAMP2-specific primers. Human RAMP3 full-length cDNAs were cloned by RT-PCR using RNA from human kidney and RAMP3 specific primers. All of the full-length cDNAs were subcloned into pcDNA3.1 expression vectors.
# Human embryonic kidney 293T cells (HEK293T) were maintained in Dulbecco's modified Eagle's medium supplemented with 10% fetal calf serum, 2 mM glutamine, […], at 37° C. in a humidified atmosphere of 95% air and 5% CO2. Transient transfections were performed using calcium phosphate co-precipitation (Mellon P. L., et al. (1981) Cell 27:279-288). Cells in six-well plates or 100-mm Petri dishes were grown to 70% confluence and transfected with 0.1 μg of DNA for CRLR, 0.05 μg for RAMPs or 1 μg for CRE-Luc and SRE-Luc per cm^2. The total amount of DNA transfected in each condition was kept constant by adding empty pcDNA3.1 vector when needed. Twenty hours after transfection, the medium was replaced with fresh medium containing 5 mM sodium butyrate for 24 h and then replaced for an additional 24 h with fresh medium without sodium butyrate. All of the experiments were performed 72 h after transfection to allow correct glycosylation and cell surface targeting of CRLR and RAMPs.
# After exposure to various concentrations of CGRP or the CGRP analogs, the cells were lysed and assayed for CRE- or SRE-luciferase activity using the luciferase assay system (Promega), and luminescence was measured using a 96-well luminometer.
# The mechanism of action for CGRP at the CRLR/RAMP1 receptor is known to up-regulate cAMP through the gs pathway, and to a lesser extent [Ca^2+] through the gq pathway. […] It is the cAMP pathway that is the primary mechanism of action of CGRP for vasodilation, cardio/renoprotection and immunomodulation.
# [2] = system: non-sedated, non-naïve cynomolgus monkeys; test: Intravenous infusion in non-sedated, telemeterized non-human primates: blood pressure, heart rate, ECG (Example 2); format: in vivo
# Description: Peptides were synthesized as in Example 1. […] Two non-naïve, telemeterized, male non-human primates (NHP “a” and “b”) were used for the test article(s) dosing regimen. […] Following a stabilized baseline period of approximately 30 minutes, one of the test article(s) was administered as an intravenous infusion via a femoral vein vascular access port (VAP) using a Pegasus PCA infusion pump for a period of 30 or 60 minutes. A minimum period of 30 minutes was allotted for the hemodynamic parameters to return to baseline prior to the next test article infusion dose. The process was repeated for each of the stated test articles. The same procedure was followed for the 1 hour infusion with 1 hour allotted for parameters to return to base line.
# The non-human primates were previously surgically prepared with telemetry transducers, type TL11M2-D70-PCT (Data Sciences International). The acquisition and analysis was done using a Ponemah (Version 4.8 or higher) data acquisition and analysis system installed on the hard drive of a computer. The computer was equipped with disk drive for file back up on readable write-once only optical media (CD-R or DVD-R).
# Prior to the first dose administration, baseline data was acquired. For each subsequent dose, data was collected for approximately 30 min postdose. Prior to the next dose, the hemodynamic parameters were allowed to return to a stable baseline±10%.
# Systolic blood pressure (SYS or SBP), diastolic blood pressure (DBP), mean arterial pressure (MAP), heart rate (HR), and all lead II ECG variables were recorded. The telemetry data files were transferred to an Excel (MicroSoft® Version 2003) spreadsheet. The following variables from the lead II ECG were measured: PR interval, QRS duration, QT interval, RR interval, and QTcF interval (calculated as
# A visual inspection of the entire collected ECG waveform for disturbances in rhythm and waveform morphology was performed. The data for selected time points were analyzed and assessed on completion of data acquisition and were the average of at least 30 beats (ABP and ECG) of data at the selected analysis time, when possible. The time points for both hemodynamic and ECG data analysis were an initial 30 min baseline prior to the first dose, at a 10 min during each infusion postdose interval relative to end of each infusion, and time points prior to the next test article infusion for each test compound.
# Non-human primates were selected because they have the same RAMP 1-CGRP receptor complex as humans.
# [3] = NHP a, dose day 2, during 30 minute infusions of 0.024 ug/kg/min
# [4] = NHP a, dose day 3, during 30 minute infusions of 0.024 ug/kg/min
# [5] = NHP a, dose day 3, during 1 hour infusion of 0.024 ug/kg/min
# [6] = NHP b, dose day 2, during 30 minute infusions of 0.024 ug/kg/min
# [7] = NHP b, dose day 3, during 30 minute infusions of 0.024 ug/kg/min
# [8] = NHP b, dose day 3, during 1 hour infusion of 0.024 ug/kg/min
# [9] = average of a 2, b 2, a 3, b 3, during 30 minute infusions of 0.024 ug/kg/min
# [10] = average of a3, b3, during 1 hour infusion of 0.024 ug/kg/min
substance,measurement,setting,value
Cyc-ACNTATCVTHRLAGLLSRSGGVVKSNFVPTNVGSKAF-NH2 (disulfide 2-7 (inferred)) [Peptide V],Heart rate effect,[1]; at any of the tested doses,no increase in heart rate
same,increase in heart rate (HR) compared to the control CGRP,"[1]; sedated Non Human Primate, IV for 5 minutes at 29/ng/kg/min",reduced increase in heart rate
same,"activity and potency in binding to the CGRP receptor, CRE-Luciferase assay",CRLR/RAMP1 receptor,as equally active and potent as h-α-CGRP and h-β-CGRP
same,"Percent change in HR, a 2",[2]; [3],−19.8%
same,"Percent change in mean BP, a 2",[2]; [3],−20.0%
same,"Percent change in systolic BP, a 2",[2]; [3],−16.2%
same,"Percent change in HR, a 3",[2]; [4],−22.2%
same,"Percent change in mean BP, a 3",[2]; [4],−8.8%
same,"Percent change in systolic BP, a 3",[2]; [4],−6.8%
same,"Percent change in HR at 30 minutes, a3",[2]; [5],−22.2%
same,"Percent change in HR at 60 minutes, a3 1 hr",[2]; [5],−5.8%
same,"Percent change in mean systolic BP at 30 minutes, a3",[2]; [5],−8.8%
same,"Percent change in mean systolic BP at 60 minutes, a3 1 hr",[2]; [5],−5.3%
same,"Percent change in systolic BP at 30 minutes, a3",[2]; [5],−6.8%
same,"Percent change in systolic BP at 60 minutes, a3 1 hr",[2]; [5],−5.8%
same,"Percent change in HR, b 2",[2]; [6],−13.1%
same,"Percent change in mean BP, b 2",[2]; [6],−28.6%
same,"Percent change in systolic BP, b 2",[2]; [6],−27.2%
same,"Percent change in HR, b 3",[2]; [7],−37.3%
same,"Percent change in mean BP, b 3",[2]; [7],−26.4%
same,"Percent change in systolic BP, b 3",[2]; [7],−23.9%
same,"Percent change in HR at 30 minutes, b3",[2]; [8],−37.3%
same,"Percent change in HR at 60 minutes, b3 1 hr",[2]; [8],14.5%
same,"Percent change in mean systolic BP at 30 minutes, b3",[2]; [8],−26.4%
same,"Percent change in mean systolic BP at 60 minutes, b3 1 hr",[2]; [8],2.4%
same,"Percent change in systolic BP at 30 minutes, b3",[2]; [8],−23.9%
same,"Percent change in systolic BP at 60 minutes, b3 1 hr",[2]; [8],2.8%
same,"Percent change in mean HR, a 2","[2]; Table 14, NHP a, dose day 2, during 30 minute infusions of 0.024 ug/kg/min",−19.8%
same,"Percent change in mean HR, a 3","[2]; Table 14, NHP a, dose day 3, during 30 minute infusions of 0.024 ug/kg/min",−22.2%
same,"Percent change in mean HR, b 2","[2]; Table 14, NHP b, dose day 2, during 30 minute infusions of 0.024 ug/kg/min",−13.1%
same,"Percent change in mean HR, b 3","[2]; Table 14, NHP b, dose day 3, during 30 minute infusions of 0.024 ug/kg/min",−37.3%
same,"Percent change in mean HR, HR","[2]; Table 14, average of a 2, b 2, a 3, b 3, during 30 minute infusions of 0.024 ug/kg/min",−23.1%
same,"Percent change in mean HR at 30 minutes, a3","[2]; Table 24, NHP a, dose day 3, during 1 hour infusion of 0.024 ug/kg/min",−22.2%
same,"Percent change in mean HR at 30 minutes, b3","[2]; Table 24, NHP b, dose day 3, during 1 hour infusion of 0.024 ug/kg/min",−37.3%
same,"Percent change in mean HR at 30 minutes, HR T30","[2]; Table 24, average of a3, b3, during 1 hour infusion of 0.024 ug/kg/min",−29.8%
same,"Percent change in mean HR at 60 minutes, a3 1 hr","[2]; Table 25, NHP a, dose day 3, during 1 hour infusion of 0.024 ug/kg/min",−5.8%
same,"Percent change in mean HR at 60 minutes, b3 1 hr","[2]; Table 25, NHP b, dose day 3, during 1 hour infusion of 0.024 ug/kg/min",14.5%
same,"Percent change in mean HR at 60 minutes, HR T60","[2]; Table 25, average of a3, b3, during 1 hour infusion of 0.024 ug/kg/min",4.4%
same,"Percent change in HR, HR",[2]; [9],−23.1%
same,"Percent change in mean BP, BP",[2]; [9],−21.0%
same,"Percent change in systolic BP, BP",[2]; [9],−18.5%
same,"Percent change in HR at 30 minutes, HR T30",[2]; [10],−29.8%
same,"Percent change in HR at 60 minutes, HR T60",[2]; [10],4.4%
same,"Percent change in mean systolic BP at 30 minutes, BP T30",[2]; [10],−17.6%
same,"Percent change in mean systolic BP at 60 minutes, BP T60",[2]; [10],−1.5%
same,"Percent change in systolic BP at 30 minutes, T30",[2]; [10],−15.4%
same,"Percent change in systolic BP at 60 minutes, T60",[2]; [10],−1.5%
same,"reduction of BP and HR (Tables 8, 13 and 14, FIG. 11)","[2]; mean BP and HR, 30 minute infusions, 0.024 ug/kg/min",reduced both BP and HR to a greater extent than the positive control αCGRP
same,effect on heart rate,"[2]; non-sedated cynomolgus monkeys, IV infusion","maintenance of pre-administration heart rate, and in some cases, reduction in heart rate"
same,"reduction of BP and HR (Tables 8-10, FIG. 10)","[2]; systolic BP and HR, 30 minute infusions, 0.024 ug/kg/min",reduced BP and HR to a greater extent than αCGRP and βCGRP
